Values quoted from earlier work as cited in patent US8268549B2, “Method and assay for determining methylation of GAL3 promoter for early diagnosis of prostate cancer” (University of Maryland, Baltimore, priority 2005, dated 2012).

Tested on: galectins

| relative binding affinity, times less effective than lactose (Lac) (galectins) [times] | Structure (SMILES) | ligand quality for chimera galectins (chimera galectins) |
| --- | --- | --- |
| ~200 | O=C[C@H](O)[C@@H](O)[C@@H](O)[C@H](O)CO [D-galactose] | – |
| – | CC(=O)N[C@@H]1[C@@H](O[C@@H]2O[C@H](CO)[C@H](O)[C@H](O)[C@H]2O)[C@@H](O)[C@@H](CO)O[C@@H]1O [T-disaccharide] | good ligand |
